Experimental data reported in US20160175288A1, “MACROCYCLIC LACTONE COMPOUNDS AND METHODS FOR THEIR USE” (Elixir Medical Corporation, priority 2008, published 2016).

Legend:
human smooth muscle cell = assay: in vitro human smooth muscle cell culture testing, incorporated thymidine; type: cell-based; settings: exposure for 8 hours, concentrations 0.0001-1 μM
Protocol: The amounts of incorporated thymidine for samples of Myolimus of varying concentrations (0.0001, 0.001, 0.01, 0.1, and 1 μM) and of rapamycin of varying concentrations (0.0001, 0.001, 0.01, 0.1, and 1 μM) were measured after exposure for 8 hours (as shown in FIG. 1). The IC50 of both Myolimus and Rapamycin was 0.1 nM indicating potent anti-proliferative properties.

MMP-9 = assay: cytokine inhibition in LPS-activated macrophages, ELISA (MMP-9); type: cell-based; settings: 10 nM
Protocol: (§1) In cell culture studies, macrophages were activated to secrete cytokines such as MMP-9 and MCP-1 by treating the cells to E Coli lippopolysaccharide (LPS). Inhibition of these cytokines upon treatment of the activated macrophages with Myolimus and rapamycin with 10 nM concentration was tested using ELISA assay.

MCP-1 = assay: cytokine inhibition in LPS-activated macrophages, ELISA (MCP-1); type: cell-based; settings: 10 nM
Protocol: as §1

[1] = cited from earlier work
[2] = in vivo; cited from earlier work

IC50 (human smooth muscle cell) [pM]	SMILES	production of MMP-9 (MMP-9)	production of MMP-9 (MMP-9; listed as myolimus)	production of MCP-1 (MCP-1)	production of MCP-1 (MCP-1; listed as myolimus)	solubility in water [1]	bioavailability [2]
100	CO[C@H]1C[C@@H]2CC[C@@H](C)[C@@](O)(O2)C(=O)C(=O)N2CCCC[C@H]2C(=O)O[C@H]([C@H](C)C[C@@H]2CC[C@@H](O)[C@H](OC)C2)CC[C@H](C)/C=C(\C)[C@@H](O)[C@@H](OC)C(=O)[C@H](C)C[C@H](C)/C=C/C=C/C=C/1C [Myolimus, 32-deoxorapamycin]	reduced the production	inhibiting production	reduced the production	inhibiting the production	–	–
100	CO[C@H]1C[C@@H]2CC[C@@H](C)[C@@](O)(O2)C(=O)C(=O)N2CCCC[C@H]2C(=O)O[C@H]([C@H](C)C[C@@H]2CC[C@@H](O)[C@H](OC)C2)CC(=O)[C@H](C)/C=C(\C)[C@@H](O)[C@@H](OC)C(=O)[C@H](C)C[C@H](C)/C=C/C=C/C=C/1C [Rapamycin]	increased the production	–	did not have any impact	–	only very slightly soluble	very low and variable
